In assay [1] the target is Platelet-derived growth factor receptor alpha (Homo sapiens, UniProt P16234). In words: Inhibition of recombinant human N-terminal GST-His6 tagged PDGFRalpha (Q551 to L1089 residues) expressed in Sf9 insect cells using poly(Ala,Glu,Lys,Tyr)6:2:5:1 hydrobromide as substrate in presence of [gamma-33P]ATP.
In assay [2] the target is Cyclin-dependent kinase 2/cyclin E1 (Homo sapiens, UniProt P24941). In words: Inhibition of CDK2/cyclin E (unknown origin) expressed in baculovirus infected insect Sf9 cells using histone H1 as substrate in presence of [gamma-33P]ATP.
Assay [3] concerns HCC827. In words: Cytotoxicity against human HCC827 cells assessed as growth inhibition after 72 hrs by calcein-AM dye based fluorescence assay. The note with it: HCC827, 72 h. The assay is classed as functional.
A further assay concerns BT-474. In words: Cytotoxicity against human BT474 cells assessed as growth inhibition after 72 hrs by calcein-AM dye based fluorescence assay. In kind it is functional. The note with it: BT-474, 72 h.
The test system of a further assay is MCF7. In words: Cytotoxicity against human MCF7 cells assessed as growth inhibition after 72 hrs by calcein-AM dye based fluorescence assay. The assay is classed as functional. As to conditions: MCF7, 72 h.
Assay [4] has as its system K562. In words: Cytotoxicity against human K562 cells assessed as growth inhibition after 72 hrs by calcein-AM dye based fluorescence assay. The assay is classed as functional. The note with it: K562, 72 h.
Assay [5] deals with EOL1. In words: Cytotoxicity against human EOL-1 cells assessed as growth inhibition after 72 hrs by calcein-AM dye based fluorescence assay. The assay is classed as functional. The note with it: EOL1, 72 h.
The subject of assay [6] is EOL1. In words: Cell cycle arrest in human EOL-1 cells assessed as G1/G2-M ratio at GI50 concentration after 24 hrs by propidium iodide staining-based flow cytometry relative to control. The assay is classed as functional. For orientation: In flow cytometry, cells or beads pass a laser one at a time.
The subject of assay [7] is HCC827. As to the kind of experiment: Cell cycle arrest in human HCC827 cells assessed as G1/G2-M ratio at GI50 concentration after 24 hrs by propidium iodide staining-based flow cytometry relative to control. The assay is classed as functional.
For assay [8], the system named is K562. As to the kind of experiment: Cell cycle arrest in human K562 cells assessed as G1/G2-M ratio at GI50 concentration after 24 hrs by propidium iodide staining-based flow cytometry relative to control. In kind it is functional.
The test system of assay [9] is EOL1. As to the kind of experiment: Cell cycle arrest in human EOL-1 cells assessed as accumulation at sub-G1 phase at 0.008 uM after 24 hrs by propidium iodide staining-based flow cytometry (reference value: 20%). The assay is classed as functional.
For assay [10], the system named is EOL1. In words: Cell cycle arrest in human EOL-1 cells assessed as accumulation at sub-G1 phase at 0.04 uM after 24 hrs by propidium iodide staining-based flow cytometry (reference value: 20%). The assay is classed as functional.
Assay [11] relates to EOL1. In words: Cell cycle arrest in human EOL-1 cells assessed as accumulation at sub-G1 phase at 0.2 uM after 24 hrs by propidium iodide staining-based flow cytometry (reference value: 20%). In kind it is functional.
In assay [12] the test system is EOL1. In words: Cell cycle arrest in human EOL-1 cells assessed as accumulation at sub-G1 phase at 1 uM after 24 hrs by propidium iodide staining-based flow cytometry (reference value: 20%). In kind it is functional.
Assay [13] deals with EOL1. In words: Cell cycle arrest in human EOL-1 cells assessed as accumulation at G1 phase at 0.008 uM after 24 hrs by propidium iodide staining-based flow cytometry (reference value: 60.9%). The assay is classed as functional.
Assay [14] concerns EOL1. In words: Cell cycle arrest in human EOL-1 cells assessed as accumulation at G1 phase at 0.04 uM after 24 hrs by propidium iodide staining-based flow cytometry (reference value: 60.9%). The assay is classed as functional.
The test system of assay [15] is EOL1. In words: Cell cycle arrest in human EOL-1 cells assessed as accumulation at G1 phase at 0.2 uM after 24 hrs by propidium iodide staining-based flow cytometry (reference value: 60.9%). In kind it is functional.
The test system of assay [16] is EOL1. In words: Cell cycle arrest in human EOL-1 cells assessed as accumulation at G1 phase at 1 uM after 24 hrs by propidium iodide staining-based flow cytometry (reference value: 60.9%). The assay is classed as functional.
For assay [17], the system named is EOL1. As to the kind of experiment: Cell cycle arrest in human EOL-1 cells assessed as accumulation at S phase at 0.008 uM after 24 hrs by propidium iodide staining-based flow cytometry (reference value: 20.7%). In kind it is functional.
Assay [18] deals with EOL1. In words: Cell cycle arrest in human EOL-1 cells assessed as accumulation at S phase at 0.04 uM after 24 hrs by propidium iodide staining-based flow cytometry (reference value: 20.7%). In kind it is functional.
The test system of assay [19] is EOL1. As to the kind of experiment: Cell cycle arrest in human EOL-1 cells assessed as accumulation at S phase at 0.2 uM after 24 hrs by propidium iodide staining-based flow cytometry (reference value: 20.7%). The assay is classed as functional.
Assay [20] relates to EOL1. In words: Cell cycle arrest in human EOL-1 cells assessed as accumulation at S phase at 1 uM after 24 hrs by propidium iodide staining-based flow cytometry (reference value: 20.7%). In kind it is functional.
Assay [21] concerns EOL1. As to the kind of experiment: Cell cycle arrest in human EOL-1 cells assessed as accumulation at G2/M phase at 0.008 uM after 24 hrs by propidium iodide staining-based flow cytometry (reference value: 18.4%). The assay is classed as functional.
In assay [22] the test system is EOL1. In words: Cell cycle arrest in human EOL-1 cells assessed as accumulation at G2/M phase at 0.04 uM after 24 hrs by propidium iodide staining-based flow cytometry (reference value: 18.4%). The assay is classed as functional.
Assay [23] has as its system EOL1. In words: Cell cycle arrest in human EOL-1 cells assessed as accumulation at G2/M phase at 0.2 uM after 24 hrs by propidium iodide staining-based flow cytometry (reference value: 18.4%). In kind it is functional.
Assay [24] relates to EOL1. In words: Cell cycle arrest in human EOL-1 cells assessed as accumulation at G2/M phase at 1 uM after 24 hrs by propidium iodide staining-based flow cytometry (reference value: 18.4%). The assay is classed as functional.

Platelet-derived growth factor receptor alpha, sequence (P16234 whole entry, the tested form may be a part): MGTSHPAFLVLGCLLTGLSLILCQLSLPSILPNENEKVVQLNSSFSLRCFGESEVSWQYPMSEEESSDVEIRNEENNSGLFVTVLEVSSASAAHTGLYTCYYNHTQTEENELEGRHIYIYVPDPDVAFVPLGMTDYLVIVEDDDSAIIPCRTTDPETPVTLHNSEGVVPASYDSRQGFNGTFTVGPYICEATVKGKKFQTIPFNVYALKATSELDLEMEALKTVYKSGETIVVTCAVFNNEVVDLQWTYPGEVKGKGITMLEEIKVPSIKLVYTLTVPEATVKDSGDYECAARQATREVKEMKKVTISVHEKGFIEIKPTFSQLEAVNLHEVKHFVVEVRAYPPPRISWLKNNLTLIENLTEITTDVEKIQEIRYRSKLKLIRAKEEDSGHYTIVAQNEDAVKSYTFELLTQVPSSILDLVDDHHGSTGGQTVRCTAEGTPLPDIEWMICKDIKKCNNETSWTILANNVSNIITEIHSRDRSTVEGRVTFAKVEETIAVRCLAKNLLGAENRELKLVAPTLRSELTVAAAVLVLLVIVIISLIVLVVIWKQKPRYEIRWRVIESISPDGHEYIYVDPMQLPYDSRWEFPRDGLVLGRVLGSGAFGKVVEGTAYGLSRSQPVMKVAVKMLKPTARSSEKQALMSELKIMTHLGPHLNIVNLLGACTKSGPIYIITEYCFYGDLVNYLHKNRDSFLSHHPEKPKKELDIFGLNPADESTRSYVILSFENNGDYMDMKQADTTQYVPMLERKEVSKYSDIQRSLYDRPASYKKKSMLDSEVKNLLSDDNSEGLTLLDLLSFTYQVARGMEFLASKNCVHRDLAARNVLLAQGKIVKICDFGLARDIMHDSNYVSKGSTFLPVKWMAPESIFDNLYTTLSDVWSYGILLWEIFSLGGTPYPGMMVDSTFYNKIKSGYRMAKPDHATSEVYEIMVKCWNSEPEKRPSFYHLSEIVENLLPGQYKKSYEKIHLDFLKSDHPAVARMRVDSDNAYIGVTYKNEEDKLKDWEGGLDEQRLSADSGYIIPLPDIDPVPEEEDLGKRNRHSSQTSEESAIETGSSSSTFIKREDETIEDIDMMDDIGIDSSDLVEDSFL

One may read the IC50 as the concentration that gives 50% inhibition. By GI50 is commonly meant the concentration giving 50% growth inhibition. On to `CC(C)CCn1cnc2c(Nc3cccc(Cl)c3)nc(N[C@H]3CC[C@H](N)CC3)nc21`, for which the figures for the IC50 in [1] and in assay [2] were 0.066 µM and 0.275 µM, respectively. Also, the GI50 in the assay with HCC827 [3] was 10.3 µM; in the assay on BT-474 it was 3.8 µM; with MCF7 it was 2.1 µM; in the assay with K562 [4], 1.5 µM; in the assay on EOL1 [5], 0.06 µM. The Ratio is on record as 6 in the assay with EOL1 [6], 1.33 in the assay with HCC827 [7] and 1.1 with K562 [8]. For the same molecule, the Activity in the assay with EOL1 [9] is recorded as 27.9%; with EOL1 [10] it was 36.5%; with EOL1 [11], 49.8%; in the assay on EOL1 [12], 46.3%; with EOL1 [13], 77.1%; with EOL1 [14], 86.1%. For the same molecule, the Activity was 86.3% in the assay with EOL1 [15]; 79.9% with EOL1 [16]; 12.5% in the assay with EOL1 [17]; 7.7% with EOL1 [18]; 10.6% with EOL1 [19]; 14.5% in the assay with EOL1 [20]. The Activity in the assay on EOL1 [21] was determined as 10.4%; in the assay with EOL1 [22], 6.2%; in the assay on EOL1 [23], 3.1%; in the assay on EOL1 [24], 5.6%.
For `CCCCn1cnc2c(Nc3ccc(Cl)cc3)nc(N[C@H]3CC[C@H](N)CC3)nc21`, the IC50 came out at 0.06 µM in assay [1] and 0.117 µM in [2]. In addition, the GI50 is 10.8 µM in the assay with HCC827 [3]; 7.3 µM in the assay on BT-474; 2.1 µM in the assay with MCF7; 2.7 µM with K562 [4]; 0.05 µM in the assay with EOL1 [5]. In addition, the Ratio was 6.43 in the assay on EOL1 [6], 0.28 with HCC827 [7] and 1.52 with K562 [8].
For `CC(C)CCn1cnc2c(Nc3cccc(O)c3)nc(N[C@H]3CC[C@H](N)CC3)nc21`, the IC50 stood at 0.066 µM in [1] and 0.513 µM in [2]. Besides, the GI50 in the assay on HCC827 [3] is 21.3 µM; with BT-474, 14.7 µM; in the assay on MCF7 it was 12.6 µM; in the assay on K562 [4], 7.6 µM; in the assay on EOL1 [5], 0.06 µM. Also, the Ratio is 8.94 in the assay with EOL1 [6], 5.6 in the assay on HCC827 [7] and 1.22 with K562 [8].
As for `CC(C)CCn1cnc2c(NCc3cccc(Cl)c3)nc(N[C@H]3CC[C@H](N)CC3)nc21`, the figures for the IC50 in assay [1] and in assay [2] were > 20 µM and 0.306 µM, respectively. For the same molecule, the GI50 in the assay with HCC827 [3] is 16.7 µM; with BT-474 it was 6.6 µM; with MCF7 it was 4.7 µM; in the assay on K562 [4] it was 3.1 µM; with EOL1 [5] it was 1.33 µM. Also, the Ratio in the assay on EOL1 [6] is given as 1.77; with HCC827 [7], 2.5; in the assay on K562 [8], 1.85.
For the molecule `CCCCCCn1cnc2c(Nc3ccc(Cl)cc3)nc(N[C@H]3CC[C@H](N)CC3)nc21`, the IC50 in assay [1] came out at 0.156 µM; in assay [2] it was 0.433 µM. Further, the GI50 is 11.7 µM with HCC827 [3]; 5.5 µM with BT-474; 4.2 µM in the assay on MCF7; 2.1 µM in the assay with K562 [4]; 0.44 µM with EOL1 [5]. Moreover, the values for the Ratio in the assay with EOL1 [6], with HCC827 [7] and in the assay with K562 [8] were 4.61, 5.2 and 0.88, respectively.
On to `CC(C)=CCn1cnc2c(Nc3cccc(Cl)c3)nc(N[C@H]3CC[C@H](N)CC3)nc21`, for which the IC50 was determined as 0.187 µM in assay [1] and 0.227 µM in assay [2]. For the same molecule, the GI50 in the assay with HCC827 [3] is 13.5 µM; in the assay with BT-474, 7 µM; in the assay with MCF7 it was 4.2 µM; with K562 [4] it was 3.5 µM; in the assay with EOL1 [5], 0.08 µM. Also, the Ratio with EOL1 [6] is 3.1; in the assay with HCC827 [7] it was 2.69; in the assay on K562 [8], 0.75.
On to `COc1ccc(Nc2nc(N[C@H]3CC[C@H](N)CC3)nc3c2ncn3CCC(C)C)c(OC)c1`, for which the IC50 amounted to 3.2 µM in [1] and 5.97 µM in assay [2]. Also, the GI50 was 32.9 µM in the assay on HCC827 [3]; 7.9 µM in the assay on BT-474; 6.3 µM in the assay on MCF7; 5.5 µM in the assay with K562 [4]; 0.63 µM with EOL1 [5]. Besides, the Ratio in the assay on EOL1 [6] came out at 1.65; in the assay with HCC827 [7], 23.09; in the assay on K562 [8], 1.
For `N[C@H]1CC[C@H](Nc2nc(Nc3ccc(O)cc3)c3ncn(C4CCCCC4)c3n2)CC1`, the IC50 in assay [1] came out at 1.23 µM; in [2], 1.44 µM. For the same molecule, the GI50 is 32.5 µM in the assay with HCC827 [3]; 27.3 µM with BT-474; 9.6 µM in the assay on MCF7; 8.9 µM with K562 [4]; 0.22 µM with EOL1 [5]. The Ratio in the assay on EOL1 [6] was found to be 2.44; in the assay with HCC827 [7], 9.61; in the assay on K562 [8] it was 0.95.
As to `CCn1cnc2c(Nc3cccc(Cl)c3)nc(N[C@@H]3CCCC[C@@H]3N)nc21`, the IC50 was > 20 µM in assay [1] and 0.017 µM in [2]. For the same molecule, the GI50 was 12.2 µM in the assay on HCC827 [3]; 5.4 µM in the assay with BT-474; 3.3 µM in the assay with MCF7; 4.8 µM with K562 [4]; 0.99 µM in the assay on EOL1 [5]. Besides, the Ratio in the assay with EOL1 [6] is given as 1.28; in the assay with HCC827 [7] it was 0.29; in the assay on K562 [8] it was 0.48.
With `CC(C)CCn1cnc2c(Nc3ccc(Cl)cc3)nc(N[C@H]3CC[C@H](N)CC3)nc21`, the figures for the IC50 in assay [1] and in assay [2] were 0.059 µM and 0.319 µM, respectively. In addition, the GI50 in the assay on HCC827 [3] was 10.2 µM; in the assay on BT-474, 5.1 µM; in the assay on MCF7, 2.7 µM; with K562 [4] it was 1.8 µM; in the assay on EOL1 [5], 0.09 µM. The Ratio was 7.8 in the assay on EOL1 [6], 3.5 in the assay with HCC827 [7] and 0.81 with K562 [8].

(Values after ChEMBL document CHEMBL4177643, “Trisubstituted purine inhibitors of PDGFRα and their antileukemic activity in the human eosinophilic cell line EOL-1” (Bioorg Med Chem, 2017).)
